The source of these data is patent US12215093B2, “Bicyclic carboxamides and methods of use thereof” (Tempest Therapeutics, Inc., priority 2018, dated 2025).

Read-outs that look alike come from different tables or passages of the source.

The target in one assay is T1, EP4 (Homo sapiens, UniProt P35408).
T1 construct: host or cells: stably transfected HEK293 cells co-expressing a promiscuous G protein and a clytin variant
Description: Functional calcium flux assay, EP4. The settings on record: stably transfected HEK293 cells; PGE2 10 nM; read-out: EP4 Ca2+-flux assay IC50. The class given is cell-based. On the technique in general: Calcium assays in cells follow changes in intracellular calcium, usually with a dye or a luminescent sensor.

Assay [1] addresses T2, EP2 (Homo sapiens, UniProt P43116). Description: cell-based.
Description: (§1) Each receptor subtype has an additional promiscuous G protein added in order to couple the aforementioned receptor to the calcium signaling pathway. The parental cell line used also expresses a novel variant of clytin, a calcium-activated photo-protein, to enable sensitive luminescent detection. Briefly, cells were plated at 50,000 cells-per-well in black, clear bottom 96-well plates. The plated cells were allowed to sit at room temperature for 30 min prior to transferring to a humidified, 37° C., 5% CO2 incubator for 18 to 24 h. Assay buffer (HBSS with 20 mM HEPES) and loading buffer (assay buffer plus 10 μM coelenterazine) were prepared on the day of the assay. Assays were performed by aspirating media from the assay plate and washing once with assay buffer, then replacing with loading buffer and allowing the cells to incubate for 1.5 h at room temperature. Compounds were prepared in assay buffer at a 3× final concentration in non-binding plates. Compounds were added to the cell plates and incubated for 30 min at room temperature. The prostanoid receptor ligand PGE2 was prepared at a 4× dilution ratio for a final concentration of 10 nM. Plates were run on a Flexstation™ using a 100 ms integration luminescence protocol for a total of 60 sec with ligand addition at 15 sec. Data were obtained from relative light units as measured by area under the curve.
Assay [2] can be described thus: Relative activity of resolved enantiomers/diastereomers (assay not stated). As to conditions: compared with the other eluting peak.
In assay [3] the target is T2, EP2.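 Also: functional calcium flux assay in stably transfected HEK293 cells expressing EP2 coupled via a promiscuous G protein, clytin luminescence read as area under the curve, 30 min compound preincubation.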
Description: as §1

T1 sequence (P35408 whole entry): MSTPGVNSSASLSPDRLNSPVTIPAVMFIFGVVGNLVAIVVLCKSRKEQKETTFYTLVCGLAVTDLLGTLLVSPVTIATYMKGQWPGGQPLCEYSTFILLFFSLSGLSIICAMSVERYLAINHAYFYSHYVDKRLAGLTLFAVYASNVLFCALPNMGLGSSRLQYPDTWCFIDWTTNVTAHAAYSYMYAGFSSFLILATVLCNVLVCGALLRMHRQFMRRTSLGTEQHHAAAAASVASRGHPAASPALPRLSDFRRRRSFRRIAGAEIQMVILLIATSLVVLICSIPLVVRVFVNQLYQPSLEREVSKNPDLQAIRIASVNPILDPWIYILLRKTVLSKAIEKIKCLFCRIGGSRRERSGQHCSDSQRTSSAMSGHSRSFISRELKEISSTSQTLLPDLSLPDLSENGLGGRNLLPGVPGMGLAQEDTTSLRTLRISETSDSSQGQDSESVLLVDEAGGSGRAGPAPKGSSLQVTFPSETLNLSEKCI
T2 sequence (P43116 whole entry): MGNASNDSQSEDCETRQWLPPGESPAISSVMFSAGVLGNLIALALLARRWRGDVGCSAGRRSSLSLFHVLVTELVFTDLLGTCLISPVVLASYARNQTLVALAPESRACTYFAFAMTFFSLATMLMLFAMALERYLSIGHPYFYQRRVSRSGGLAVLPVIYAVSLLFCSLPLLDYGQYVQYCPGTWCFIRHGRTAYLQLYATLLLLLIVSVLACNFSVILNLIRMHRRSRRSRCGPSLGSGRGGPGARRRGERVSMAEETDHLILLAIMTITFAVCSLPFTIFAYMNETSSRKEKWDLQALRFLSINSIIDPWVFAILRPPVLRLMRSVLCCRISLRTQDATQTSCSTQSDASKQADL

As usually defined, the IC50 is the concentration that inhibits the measured activity by half. Turning to `CC(c1ccc(-c2ccccc2)cc1)n1ncc2cccc(C(=O)NC3CC4(C3)CC(C(=O)O)C4)c21` (single isomer, unassigned) [Example 125, (Sa)-6-(1-((R) or (S)-1-([1,1′-Biphenyl]-4-yl)-ethyl)-1H-indazole-7-carboxamido)spiro[3.3]heptane-2-carboxylic acid], the IC50 at EP4 is < 1 nM; against EP2 [1] it was < 25 nM. Besides, the “more active enantiomer / diastereomer after chiral SFC resolution” value (shortened to “more active enantiomer / diastereomer”) in assay [2] is on record as “more active diastereomer”.

Regarding `[2H]C([2H])([2H])C([2H])(c1ccc(-c2ccccc2)cc1)n1ncc2c(Cl)ccc(C(=O)NC3CC4(C3)CC(C(=O)O)C4)c21` (single isomer, unassigned) [Example 167, (Sa)-6-(1-((R) or (S)-1-([1,1′-Biphenyl]-4-yl)ethyl-1,2,2,2-d4)-4-chloro-1H-indazole-7-carboxamido)spiro[3.3]heptane-2-carboxylic acid], the values for the half-inhibitory concentration (IC50) on EP4 and on EP2 [1] were 3.5 nM and 41 nM, respectively.

`[2H]C([2H])([2H])C([2H])(c1ccc(-c2ccccc2)cc1)n1ncc2cccc(C(=O)NC3CC4(C3)CC(C(=O)O)C4)c21` (single isomer, unassigned) [Example 169, (Sa)-6-(1-((R) or (S)-1-([1,1′-Biphenyl]-4-yl)ethyl-1,2,2,2-d4)-1H-indazole-7-carboxamido)spiro[3.3]heptane-2-carboxylic acid]: the 50% inhibitory concentration (IC50) at EP4 worked out at 1.5 nM; against EP2 [1] it was 63 nM.

For the compound `CC(c1ccc(-c2ccccc2)cc1)n1ncc2cc(Cl)cc(C(=O)NC3CC4(C3)CC(C(=O)O)C4)c21` (single isomer, unassigned) [Example 174, (Sa)-6-(1-((R) or (S))-1-([1,1′-Biphenyl]-4-yl)ethyl)-5-chloro-1H-indazole-7-carboxamido)spiro[3.3]heptane-2-carboxylic acid], the values for the concentration for half-maximal inhibition (IC50) against EP2 [3] and on EP4 were < 25 nM and 6.4 nM, respectively. Further, the “more active enantiomer / diastereomer” value in assay [2] is reported as “more active diastereomer”.

Regarding `O=C(NC1CC2(C1)CC(C(=O)O)C2)c1ccc(F)c2ccn(Cc3ccc(OC(F)(F)F)cc3)c12` (stereo not shown) [Example 8, (Sa)-6-(4-Fluoro-1-(4-(trifluoromethoxy)benzyl)-1H-indole-7-carboxamido)spiro[3.3]heptane-2-carboxylic acid], the 50% inhibitory concentration (IC50) at EP4 is < 1 nM; against EP2 [1], 43 nM. In addition, the “more active enantiomer / diastereomer” value in assay [2] is on record as “more active enantiomer”.

Take `O=C(NC1CC2(C1)CC(C(=O)O)C2)c1ccc(F)c2ccn(Cc3ccc(-c4ccccc4)cc3)c12` (stereo not shown) [Example 9, (Sa)-6-(1-([1,1′-Biphenyl]-4-ylmethyl)-4-fluoro-1H-indole-7-carboxamido)spiro[3.3]heptane-2-carboxylic acid]: the “more active enantiomer / diastereomer” value in assay [2] is reported as “more active enantiomer”.

Consider `O=C(NC1CC2(C1)CC(C(=O)O)C2)c1ccc(F)c2ccn(Cc3ccc(-c4ccncc4)cc3)c12` (stereo not shown) [Example 24, (Sa)-6-(4-Fluoro-1-(4-(pyridin-4-yl)benzyl)-1H-indole-7-carboxamido)spiro[3.3]heptane-2-carboxylic acid], for which the “more active enantiomer / diastereomer” value in assay [2] is reported as “more active enantiomer”.

In the case of `COc1ccc(-c2ccc(Cn3ccc4c(F)ccc(C(=O)NC5CC6(C5)CC(C(=O)O)C6)c43)cc2)cc1Cl` (stereo not shown) [Example 25, (Sa)-6-(1-((3′-Chloro-4′-methoxy-[1,1′-biphenyl]-4-yl)methyl)-4-fluoro-1H-indole-7-carboxamido)spiro[3.3]heptane-2-carboxylic acid], the IC50 on EP4 is < 1 nM; against EP2 [1], < 25 nM.

Take `[2H]C([2H])([2H])Oc1cccc(-c2ccc(Cn3ccc4c(F)ccc(C(=O)NC5CC6(C5)CC(C(=O)O)C6)c43)cc2)c1` (stereo not shown) [Example 52, (Sa)-6-(4-fluoro-1-((3’-methoxy-d3-[1,1′-biphenyl]-4-yl)methy1)-1H-indole-7-carboxamido)spiro[3.3]heptane-2-carboxylic acid]: the 50% inhibitory concentration (IC50) at EP4 is < 1 nM; against EP2 [1], < 25 nM.

In the case of `CCOc1cccc(-c2ccc(Cn3ccc4c(F)ccc(C(=O)NC5CC6(C5)CC(C(=O)O)C6)c43)cc2)c1` (stereo not shown) [Example 54, (Sa)-6-(1-((3’-ethoxy-[1,1′-biphenyl]-4-yl)methyl)-4-fluoro-1H-indole-7-carboxamido)spiro[3.3]heptane-2-carboxylic acid], the results for the IC50 at EP4 and at EP2 [1] were < 1 nM and 43 nM, respectively.

In the case of `CCOc1cccc(-c2ccc(Cn3ccc4c(F)ccc(C(=O)NC5CC6(C5)CC(C(=O)O)C6)c43)cc2)n1` (stereo not shown) [Example 56, (Sa)-6-(1-(4-(6-Ethoxypyridin-2-yl)benzyl)-4-fluoro-1H-indole-7-carboxamido)spiro[3.3]heptane-2-carboxylic acid], the half-maximal inhibitory concentration (IC50) at EP4 is < 1 nM; on EP2 [1], 76 nM.

Take `O=C(NC1CC2(C1)CC(C(=O)O)C2)c1ccc(F)c2ccn(Cc3ccc(-c4ccccc4)c(F)c3)c12` (stereo not shown) [Example 65, (Sa)-6-(4-Fluoro-1-((2-fluoro-[1,1′-biphenyl]-4-yl)methyl)-1H-indole-7-carboxamido)spiro[3.3]heptane-2-carboxylic acid]: the IC50 at EP4 is 3 nM; against EP2 [1], 43 nM.

Consider `O=C(NC1CC2(C1)CC(C(=O)O)C2)c1ccc(F)c2ccn(Cc3ccc(-c4ccccc4)cc3F)c12` (stereo not shown) [Example 66, (Sa)-6-(4-Fluoro-1-((3-fluoro-[1,1′-biphenyl]-4-yl)methyl)-1H-indole-7-carboxamido)spiro[3.3]heptane-2-carboxylic acid], for which the values for the IC50 on EP4 and against EP2 [1] were < 1 nM and < 25 nM, respectively.

With `O=C(NC1CC2(C1)CC(C(=O)O)C2)c1ccc(Cl)c2ccn(Cc3ccc(N4CCOCC4)cc3)c12` (stereo not shown) [Example 71, (Sa)-6-(4-Chloro-1-(4-morpholinobenzyl)-1H-indole-7-carboxamido)spiro[3.3]heptane-2-carboxylic acid], the 50% inhibitory concentration (IC50) was < 1 nM at EP4 and 94 nM against EP2 [1].

Turning to `COc1cc(-c2ccc(Cn3ncc4c(Cl)ccc(C(=O)NC5CC6(C5)CC(C(=O)O)C6)c43)cc2)ccn1` (stereo not shown) [Example 78, (Sa)-6-(4-Chloro-1-(4-(2-methoxypyridin-4-yl)benzyl)-1H-indazole-7-carboxamido)spiro[3.3]heptane-2-carboxylic acid], the concentration for half-maximal inhibition (IC50) was determined as 4.4 nM on EP4 and 99 nM against EP2 [1].

With `CCOc1cccc(-c2ccc(Cn3ncc4c(Cl)ccc(C(=O)NC5CC6(C5)CC(C(=O)O)C6)c43)cc2)n1` (stereo not shown) [Example 83, (Sa)-6-(4-Chloro-1-(4-(6-ethoxypyridin-2-yl)benzyl)-1H-indazole-7-carboxamido)spiro[3.3]heptane-2-carboxylic acid], the half-inhibitory concentration (IC50) on EP4 was < 1 nM; on EP2 [1], < 25 nM.

As to `COc1cccc(-c2ccc(Cn3ccc4c(OC)ncc(C(=O)NC5CC6(C5)CC(C(=O)O)C6)c43)cc2)n1` (stereo not shown) [Example 92, (Sa)-6-(4-Methoxy-1-(4-(6-methoxypyridin-2-yl)benzyl)-1H-pyrrolo[3,2-c]pyridine-7-carboxamido)spiro[3.3]heptane-2-carboxylic acid], the values for the IC50 on EP4 and on EP2 [1] were < 1 nM and < 25 nM, respectively.

With `[2H]C1(C(=O)O)CC2(CC(NC(=O)c3ccc(F)c4ccn(Cc5ccc(-c6ccccc6)cc5)c34)C2)C1` (stereo not shown) [Example 105, (Sa)-6-(1-([1,1′-Biphenyl]-4-ylmethyl)-4-fluoro-1H-indole-7-carboxamido)-2-deuterospiro[3.3]heptane-2-carboxylic acid], the “more active enantiomer / diastereomer” value in assay [2] was “more active enantiomer”.

As to `CS(=O)(=O)NC(=O)C1CC2(CC(NC(=O)c3ccc(F)c4ccn(Cc5ccc(OC(F)(F)F)cc5)c34)C2)C1` (stereo not shown) [Example 111, (Sa)-4-Fluoro-N-(6-((methylsulfonyl)carbamoyl)spiro[3.3]heptan-2-yl)-1-(4-(trifluoromethoxy)benzyl)-1H-indole-7-carboxamide], the concentration for half-maximal inhibition (IC50) was determined as 1.2 nM at EP4 and 38 nM on EP2 [1].

As for `COc1cc(-c2ccc(Cn3ncc4cc(Cl)cc(C(=O)NC5CC6(C5)CC(C(=O)O)C6)c43)cc2)ccn1` (stereo not shown) [Example 135, (Sa)-6-(5-Chloro-1-(4-(2-methoxypyridin-4-yl)benzyl)-1H-indazole-7-carboxamido)spiro[3.3]heptane-2-carboxylic acid], the figures for the IC50 on EP4 and on EP2 [1] were < 1 nM and < 25 nM, respectively.

In the case of `CCOc1cc(-c2ccc(Cn3ncc4cc(Cl)cc(C(=O)NC5CC6(C5)CC(C(=O)O)C6)c43)cc2)ccn1` (stereo not shown) [Example 136, (Sa)-6-(5-chloro-1-(4-(2-ethoxypyridin-4-yl)benzyl)-1H-indazole-7-carboxamido)spiro[3.3]heptane-2-carboxylic acid], the IC50 on EP4 was < 1 nM; at EP2 [1], < 25 nM.

Turning to `COc1cccc(-c2ccc(Cn3ccc4c(F)ccc(C(=O)NC5CC6(CC(CC(=O)O)C6)C5)c43)cc2)n1` (stereo not shown) [Example 150, (Ra)-2-(6-(4-fluoro-1-(4-(6-methoxypyridin-2-yl)benzyl)-1H-indole-7-carboxamido)spiro[3.3]heptan-2-yl)acetic acid], the 50% inhibitory concentration (IC50) was < 1 nM on EP4 and 61 nM at EP2 [1].

Consider `O=C(NC1CC2(C1)CC(C(=O)O)C2)c1ccc(Cl)c2cnn(C3(c4ccc(-c5ccccc5)cc4)COC3)c12` (stereo not shown) [Example 176, (Sa)-6-(1-(3-([1,1′-Biphenyl]-4-yl)oxetan-3-yl)-4-chloro-1H-indazole-7-carboxamido)spiro[3.3]heptane-2-carboxylic acid], for which the values for the IC50 at EP4 and on EP2 [1] were 2.9 nM and < 25 nM, respectively.
